{
  "source": "patent US20250375436A1",
  "about": "“SERDEXMETHYLPHENIDATE FOR TREATMENT OF IDIOPATHIC HYPERSOMNIA” (ZEVRA THERAPEUTICS, INC., priority 2024, published 2025)",
  "format_in_all_cases": "in vivo, human",
  "key": {"adults with IH [1]": {"system": "adults with IH", "experiment": "Phase 2 IH study: Brain Fog Scale (BFS)", "conditions": "for Brain Fog, Mean, Titration Baseline: before treatment; for Brain Fog, Mean, Randomization Baseline (Week 5): end of open-label titration; for Brain Fog, Difference in LS Mean (SE): SDX vs placebo, ANCOVA", "excerpt": "“Brain Fog Symptom Score” or “BFS” as it relates to the present technology, means the total score collected with a 19-item questionnaire asking the respondents to describe their mental state while experiencing “Brain Fog” during the last week. The currently recognized 19 mental states of BF include forgetful, difficulty thinking, difficulty focusing, cloudy, difficulty finding the right words/communicating, mental fatigue, slow, mind went blank, spacey, difficulty processing what others say, exhausted, easily distracted, difficulty processing words read, confused, annoyed, sleepy, lost, detached, thoughts moving too quickly. Each item is answered based on a 0 to 4-point Likert scale where 0 means “strongly disagree” and 4 means “strongly agree”.\n(§1) A double-blind, placebo-controlled, randomized-withdrawal, dose-optimizing, multi-center study investigated the safety and efficacy of serdexmethylphenidate for the treatment of IH. Twenty-two (22) patients completed a 7-week study consisting of two parts. Part 1 of the trial comprised a five-week open-label titration phase during which patients were optimized to one of four total daily doses of serdexmethylphenidate (80, 160, 240, or 320 mg/day). About half the study participants were assigned to take the total daily dose of study drug once per day just before going to bed (QD dosing cohort). The other half was instructed to take half the daily dose of study drug in the morning after awakening and the second half of the daily dose just before going to bed (BID dosing cohort). The titration procedure during the 5-week open label period was conducted as follows: patient treatment was initiated with the lowest total daily dose (80 mg/day) regardless of dosing regimen. At subsequent clinical visits scheduled at intervals of about 1 week each, the dose of the patient was either decreased (except after the first week), maintained, or increased based on tolerability, clinical effect, and adverse events. Depending on the severities of any dose-limiting effects as determined by the clinician, the dose was decreased if possible or the patient was discontinued from the study. If the dose was tolerated by the patient and the clinician determined an opportunity to improve effectiveness, the dose of study drug was increased if possible. Otherwise, the dose was maintained in the subsequent week.\n(§2) Part 2 of the trial comprised a two-week randomized (2:1), double-blind, withdrawal phase, during which two-thirds of the trial participants continued to receive their optimized dose while the remaining one-third received placebo. During the withdrawal phase, patients continued the same dosing regimen (QD or BID) they were assigned to at treatment initiation and adhered to during the titration phase.\n(§3) Secondary efficacy endpoints included Excessive Daytime Sleepiness (EDS) assessed with the Epworth Sleepiness Scale (ESS). Additional secondary endpoints were based on the Idiopathic Hypersomnia Severity Scale (IHSS), daily rating of difficulty of waking up in the morning assessed with the Sleep Inertia Visual Analog Scale (SI-VAS), and rating of brain fog symptoms measured with an exploratory Brain Fog Scale (BFS). Scores on the ESS, IHSS, and BFS were based on a 1-week look-back period.\nThe BFS scale is based on a 19 item questionnaire where each question is scored on a 0-4 Likert scale where a score of 0 means “strongly disagree”, a score of 2 means “neutral”, and a score of 4 means “strongly agree”. Possible BFS total scores range from 0 to 76. The horizontal dashed line at a BFS score of 38 points represents the total BFS score of for “neutral” responses to all 19 questions."}, "adults with IH [2]": {"system": "adults with IH", "experiment": "Phase 2 IH study: Idiopathic Hypersomnia Severity Scale (IHSS)", "conditions": "for IHSS, Mean, Titration Baseline: before treatment; for IHSS, Mean, Randomization Baseline (Week 5): end of open-label titration; for IHSS, Difference in LS Mean (SE): SDX vs placebo, ANCOVA", "excerpt": "“Idiopathic Hypersomnia Severity Scale” or “IHSS,” as it relates to the present technology, means a self-administered 14 question survey. Respondents are asked to rate on a 4-point scale (0-3) the severity of IH symptoms such as prolonged and/or unrefreshing daytime and nighttime sleep; impaired daytime alertness, and sleep inertia. The total possible score is 50 if all questions are rated at the maximum score. IHSS scores are generally interpreted as follows: 0-12, mild; 13-25, moderate; 26-38, severe; and 39-50, very severe.\nas §1, §2, §3\nThe minimally clinically important difference for the IHSS is 4 points. The horizontal dashed line at an IHSS score of 22 points marks the boundary between “normal” individuals and individuals that may have a sleep disorder with more severe symptoms of idiopathic hypersomnia. Scores of 22 and less are generally considered “healthy” or “normal” whereas scores greater than 22 indicate symptoms of idiopathic hypersomnia."}, "adults with IH [3]": {"system": "adults with IH", "experiment": "Phase 2 IH study: Epworth Sleepiness Scale (ESS)", "conditions": "BID Cohort, SDX (N = 17)", "excerpt": "“Epworth Sleepiness Scale” or “ESS,” as it relates to the present technology, means a self-administered questionnaire with 8 questions. Respondents are asked to rate, on a 4-point scale (0-3), their usual chances of dozing off or falling asleep while engaged in eight different activities. Most people engage in those activities at least occasionally, although not necessarily every day. The ESS score (the sum of 8 item scores, 0-3) can range from 0 to 24. The higher the ESS score, the higher that person's average sleep propensity in daily life (ASP), or their ‘daytime sleepiness’. ESS score are generally interpreted as follows: 0-5, lower normal daytime sleepiness; 6-10 higher normal daytime sleepiness; 11-12, mild excessive daytime sleepiness; 13-15, moderate excessive daytime sleepiness; and 16-24, severe excessive daytime sleepiness. [https://epworthsleepinessscale.com/about-theess/]herein incorporated by reference.\nas §1, §2, §3\nThe minimally clinically important difference for the ESS scale is 2-3 points. The horizontal dashed line at an ESS score of 10 points marks the boundary between “normal” levels of daytime sleepiness and “excessive” levels of daytime sleepiness. Scores of 10 and less are generally considered “healthy” or “normal” levels of daytime sleepiness whereas scores greater than 10 are considered “excessive”."}, "[4]": {"conditions": "all patients, 5-week titration period"}, "[5]": {"conditions": "patients continuing treatment during the 2-week withdrawal period"}},
  "data": [
    {"smiles": "COC(=O)[C@H](c1ccccc1)[C@H]1CCCCN1C(=O)OC[n+]1cccc(C(=O)N[C@@H](CO)C(=O)O)c1", "note": "[SDX, serdexmethylphenidate]", "values": [
      {"measurement": "Brain Fog, Mean Change from Randomization Baseline to Week 7", "setting": "adults with IH [1]; BID Cohort, SDX (N = 17)", "value": 1.5},
      {"measurement": "Brain Fog, Mean, End of Withdrawal Period (Week 7)", "setting": "adults with IH [1]; BID Cohort, SDX (N = 17)", "value": 30.1},
      {"measurement": "Brain Fog, Mean, Titration Baseline", "setting": "adults with IH [1]; BID Cohort, SDX (N = 17)", "value": 52.4},
      {"measurement": "Brain Fog, Mean, Randomization Baseline (Week 5)", "setting": "adults with IH [1]; BID Cohort, SDX (N = 17)", "value": 28.6},
      {"measurement": "Brain Fog, Difference in LS Mean (SE)", "setting": "adults with IH [1]; BID Cohort, p-value 0.060", "value": "−13.7 (7.07)"},
      {"measurement": "Brain Fog, Mean Change from Randomization Baseline to Week 7", "setting": "adults with IH [1]; QD Cohort, SDX (N = 15)", "value": 0.9},
      {"measurement": "Brain Fog, Mean, End of Withdrawal Period (Week 7)", "setting": "adults with IH [1]; QD Cohort, SDX (N = 15)", "value": 28.5},
      {"measurement": "Brain Fog, Mean, Titration Baseline", "setting": "adults with IH [1]; QD Cohort, SDX (N = 15)", "value": 52.3},
      {"measurement": "Brain Fog, Mean, Randomization Baseline (Week 5)", "setting": "adults with IH [1]; QD Cohort, SDX (N = 15)", "value": 27.5},
      {"measurement": "Brain Fog, Difference in LS Mean (SE)", "setting": "adults with IH [1]; QD Cohort, p-value 0.995", "value": "0.0 (7.50)"},
      {"measurement": "Decrease in mean BFS score", "setting": "adults with IH [1]; [4]", "value": "19-25 points"},
      {"measurement": "Change in mean BFS score", "setting": "adults with IH [1]; [5]", "value": "no more than 1.5 points"},
      {"measurement": "IHSS, Mean Change from Randomization Baseline to Week 7", "setting": "adults with IH [2]; BID Cohort, SDX (N = 17)", "value": 0.3},
      {"measurement": "IHSS, Mean, End of Withdrawal Period (Week 7)", "setting": "adults with IH [2]; BID Cohort, SDX (N = 17)", "value": 21.6},
      {"measurement": "IHSS, Mean, Titration Baseline", "setting": "adults with IH [2]; BID Cohort, SDX (N = 17)", "value": 34.3},
      {"measurement": "IHSS, Mean, Randomization Baseline (Week 5)", "setting": "adults with IH [2]; BID Cohort, SDX (N = 17)", "value": 21.3},
      {"measurement": "IHSS, Difference in LS Mean (SE)", "setting": "adults with IH [2]; BID Cohort, p-value 0.104", "value": "−9.0 (3.48)"},
      {"measurement": "IHSS, Mean Change from Randomization Baseline to Week 7", "setting": "adults with IH [2]; QD Cohort, SDX (N = 15)", "value": 0.7},
      {"measurement": "IHSS, Mean, End of Withdrawal Period (Week 7)", "setting": "adults with IH [2]; QD Cohort, SDX (N = 15)", "value": 19.3},
      {"measurement": "IHSS, Mean, Titration Baseline", "setting": "adults with IH [2]; QD Cohort, SDX (N = 15)", "value": 35.4},
      {"measurement": "IHSS, Mean, Randomization Baseline (Week 5)", "setting": "adults with IH [2]; QD Cohort, SDX (N = 15)", "value": 18.6},
      {"measurement": "IHSS, Difference in LS Mean (SE)", "setting": "adults with IH [2]; QD Cohort, p-value 0.208", "value": "0.9 (3.73)"},
      {"measurement": "Decrease in mean IHSS score", "setting": "adults with IH [2]; [4]", "value": "12-17 points"},
      {"measurement": "Change in mean IHSS score", "setting": "adults with IH [2]; [5]", "value": "no more than 0.7 points"},
      {"measurement": "ESS, Mean Change from Randomization Baseline to Week 7", "setting": "adults with IH [3]", "value": 0.1},
      {"measurement": "ESS, Mean, End of Withdrawal Period (Week 7)", "setting": "adults with IH [3]", "value": 7.6},
      {"measurement": "ESS, Mean, Titration Baseline", "setting": "adults with IH [3]; before treatment", "value": 16.5},
      {"measurement": "ESS, Mean, Randomization Baseline (Week 5)", "setting": "adults with IH [3]; end of open-label titration", "value": 7.5}
    ]}
  ]
}
